We go through one molecule from ChEMBL document CHEMBL1139698, “Potent, selective pyrimidinetrione-based inhibitors of MMP-13” (Bioorg Med Chem Lett, 2006).

Data set [1] can be described thus: Volume of distribution in rat. The format is ADME, organism-based. Conditions: in vivo, read-out: Vdss.
Data set [2] has as its system Cartilage tissue. The data set is described as follows: Inhibition of bovine nasal cartilage degradation. The format is functional, tissue-based. To be noted: Bos taurus.
The species entered for data set [3] is Homo sapiens. The data set is described as follows: Selectivity for MMP13 over MMP3.
The species entered for data set [4] is Homo sapiens. The data set is described as follows: Selectivity for MMP13 over MMP2.
For data set [5], the species on record is Homo sapiens. The data set is described as follows: Selectivity for MMP13 over MMP9.
Data set [6] can be described thus: Plasma protein binding in rat. The format is ADME, cell-free. To be noted: read-out: PPB.
For data set [7], the target named is Collagenase 3 (Rattus norvegicus, UniProt P23097). The data set is described as follows: Inhibition of MMP13 in rat plasma. The format is cell-free.
The species named for data set [8] is Homo sapiens. Briefly: Selectivity for MMP13 over MMP8.
A short description of data set [9]: Half life in rat. The format is ADME, organism-based. Conditions: in vivo.
The species entered for data set [10] is Homo sapiens. Briefly: Selectivity for MMP13 over MMP12.
The species named for data set [11] is Homo sapiens. The data set is described as follows: Selectivity for MMP13 over MMP14.
Data set [12] has as its target Matrix metalloproteinase (1 and 13) (Homo sapiens) (UniProt P45452+P03956). The data set is described as follows: Selectivity for MMP13 over MMP1. The format is protein assay.
For data set [13], the target named is T1, Collagenase 3 (Homo sapiens, UniProt P45452).
The target in data set [14] is T1, Collagenase 3. The data set is described as follows: Inhibition of MMP13 in hamster synovial fluid. Conditions: Cricetulus griseus.
Data set [15] in a line: Plasma clearance in rat. The format is ADME, organism-based.

Where only a bound is given, the exact number is not on record here.

Chain of Matrix metalloproteinase (1 and 13) (Homo sapiens) (P03956 whole entry, looked up, other chains not shown): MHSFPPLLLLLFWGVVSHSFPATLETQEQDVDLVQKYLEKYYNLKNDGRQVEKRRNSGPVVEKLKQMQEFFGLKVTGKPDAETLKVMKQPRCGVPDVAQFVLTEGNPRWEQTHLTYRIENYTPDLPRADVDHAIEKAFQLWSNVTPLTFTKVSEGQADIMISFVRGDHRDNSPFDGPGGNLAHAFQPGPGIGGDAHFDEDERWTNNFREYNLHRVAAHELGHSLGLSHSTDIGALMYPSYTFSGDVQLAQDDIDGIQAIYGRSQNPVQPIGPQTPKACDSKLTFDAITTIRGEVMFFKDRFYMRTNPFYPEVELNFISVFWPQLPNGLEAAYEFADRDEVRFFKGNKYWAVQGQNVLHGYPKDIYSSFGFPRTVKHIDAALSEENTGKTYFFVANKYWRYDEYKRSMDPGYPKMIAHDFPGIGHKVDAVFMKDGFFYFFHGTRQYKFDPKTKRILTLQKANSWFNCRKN

For the molecule `COCCC1(Oc2ccc(Oc3ccc(-c4nc(-c5ccc(C#N)cc5)co4)cc3)cc2)C(=O)NC(=O)NC1=O`, the Vd in data set [1] came to 0.34 L/kg. The half-maximal inhibitory concentration (IC50) in data set [2] stood at 40 nM; in [7] it was 7200 nM; in data set [13], 0.84 nM. Also, the Selectivity ratio in [3] was 1700; in [4], 397; in data set [5], 540; in data set [8], 394; in data set [10] it was 619; in [11], 540. Also, the Selectivity ratio in data set [12] was found to be 2400. Also, the fraction unbound in data set [6] is under 0.01. The same molecule showed a half-life in data set [9] of 6.9 h. Moreover, the ED50 in [14] was 1 mg/kg. Further, the clearance in [15] came to 0.63 mL/min/kg.

Usually IC50 stands for the concentration at which inhibition is half-maximal. Low values mean greater potency, high ones weaker potency. For orientation: half-life means the time in which the quantity being followed falls by half. Low values mean fast loss, high ones slow loss. The term ED50 denotes the dose that gives a 50% effect, or the effect in half of the subjects. A low value points to an effect at a small dose. By clearance is commonly meant the volume of plasma or blood freed of the substance per unit of time. The low end stands for inefficient removal, the high end for efficient removal.
